This passage reports IC50 results from BindingDB's records for doi:10.1016/j.bmcl.2014.07.010 (Freie Universitaet Berlin, 2014).

This test is described as follows: Inhibition of influenza A virus (A/Perth/16/2009(H3N2)) neuraminidase using MUNANA substrate pre-incubated for 30 mins before substrate addition by fluorometric assay.

The structures appear in SMILES notation.

Regarding `C[C@@H]1O[C@@H](Oc2c(-c3ccc(O)c(O)c3)oc3cc(O)cc(O)c3c2=O)[C@H](O)[C@H](O)[C@H]1O` [CHEBI:17558], the IC50 – broadly, the concentration that inhibits the measured activity by half – was found to be 121 µM. As for `O=c1cc(O)cc2oc(-c3ccc(O)c(O)c3)c(O[C@@H]3O[C@H](CO)[C@@H](O)[C@H](O)[C@H]3O)c(O)c1-2` [Quercetin 3-O-beta-D-glucoside], the figure is 477 µM; as for `O=c1cc(O)cc2oc(-c3ccc(O)c(O)c3)c(O[C@@H]3O[C@H](CO)[C@H](O)[C@H](O)[C@H]3O)c(O)c1-2` [2-(3,4-Dihydroxy-phenyl)-5,7-dihydroxy-3-((2S,4R,5R)-3,4,5-trihydroxy-6-hydroxymethyl-tetrahydro-pyran-2-yloxy)-chromen-4-one], 85.5 µM. Next, `O=c1c(O)c(-c2ccc(O)cc2)oc2cc(O)cc(O)c12`: 42.2 µM; `O=c1cc(-c2ccc(O)c(O)c2)oc2cc(O[C@@H]3O[C@H](CO)[C@@H](O)[C@H](O)[C@H]3O)cc(O)c12`: 51.2 µM.
